| melting point [°C] | Structure (SMILES) |
| --- | --- |
| 149 to 150 | O=C(O)CCCCCCCCn1c(-c2ccccc2)nc(-c2ccccc2)c1-c1ccccc1 |
| 95 | Fc1ccccc1N1CCN(CCCCNc2ccc(-c3ccccc3)cn2)CC1 |
| 190 to 192 | COc1cc(N2CCN([C@H]3CC[C@@H](c4cn(C)c5ccc(C#N)cc54)CC3)CC2)c2ncc(C)cc2c1 |
| 152 to 154 | CN(Cc1sc2c(=O)c(C(=O)NCc3ccc(Cl)cc3)cn(C)c2c1COCC[Si](C)(C)C)CC(O)c1ccc(C#N)s1 (centres undefined) |
| 75 to 77 | C=CCC12CCC(=O)C1(C)CCC1c3ccc(OC)cc3CCC12 (centres undefined) |
| 84 to 85 | O=C(NCC12CC3CC(CC(C3)C1)C2)c1cc(CCCNCCCO)ncc1Cl |
| 141 to 143 | CCCOc1ccc(S(=O)(=O)C(C)C)cc1-c1nc2c(CC)nn(C[C@@H]3CCCN3C(=O)OC(C)(C)C)c2c(=O)[nH]1 |
| 156 to 157 | CC1(C)CCC(=O)c2c1oc(-c1ccncc1)c2-c1ccccc1 |
| 170 to 175 | O=C(O)C#Cc1c(Cl)cc(Cl)cc1Cl |
| 149 | Cc1ccc(Nc2nc(Cl)nc(NC3CCCCCC3)n2)cc1F |
| 197 to 198 | CCCCOc1c(CNC(=O)OC(C)(C)C)n(CC2CC2)c(=O)c2ccc(C(=O)O)cc12 |
| 265 | CS(=O)C1C=Nc2cc(F)ccc2C1=O (centres undefined) |
| 107 to 108 | CCCC(C)c1nn(-c2ccc(C(F)(F)F)cn2)cc1CCCOc1c(CC(=O)O)cccc1OC (centres undefined) |
| 95 to 96 | CC(C)(C(=O)NO)C(O)Cc1ccccc1 (centres undefined) |
| 123 to 125 | CCN(CC)c1nc2ccccc2n2c(C)nnc12 |
| 102 to 106 | Cc1cc(C)c2cccc(OCc3c(Cl)ccc(S(=O)(=O)N4CCC[C@H]4C(=O)NCCCNC(=O)c4cccc(C#N)c4)c3Cl)c2n1 |
| 212 to 213 | Cc1ccc2sc(S(N)(=O)=O)cc2c1 |
| 150 to 153 | O=C(O)C=Cc1ccc(-c2cnc(CSCCOc3ccccc3)o2)cc1 |
| 252 to 253 | CCOC(=O)c1cn(CC)c2nc3ccccc3n2c1=O |
| 92 to 95 | CC#CCOc1ccc(S(=O)(=O)NC(C(=O)NO)c2ccc(OCCN3CCN(C(=O)OC(C)(C)C)CC3)cc2)cc1 (centres undefined) |
| 62 to 62.5 | C=CCCCn1ncc2c(N)c(C(=O)OCC=C)c(C)nc21 |
| 112 to 114 | COC(=O)c1cc(C(=O)CBr)cs1 |
| 188 to 193 | [N-]=[N+]=Nc1ccnc2c(NC(=O)c3c(Cl)cccc3Cl)cccc12 |
| 82 to 83 | CCOC(=O)c1cc2cccc(OCc3ccccc3)c2[nH]1 |
| 184 | CC(C)c1ncc(O)cn1 |

| melting point [°C] | Structure (SMILES) |
| --- | --- |
| 210 to 213 | CC1(C)[C@@H](C(=O)Nc2cc(C(F)(F)F)n[nH]2)[C@@H]1c1ccc(S(N)(=O)=O)cc1 (relative stereo) |
| 31.5 to 35 | CCCCCCCCCCCCc1cc(CBr)on1 |
| 78 to 82 | Cc1ccc(C(O)c2cc3ccncc3[nH]2)cc1 (centres undefined) |
| 102 to 103 | COc1ccc(C(=O)Cc2ccncc2)cc1OC1CCCC1 |
| 108 | Fc1cc2c(cc1F)Sc1cc(F)c(F)cc1S2 |
| 106 to 107 | COc1ccnc(C(=O)NCCNC(=O)OC(C)(C)C)c1 |
| > 270 | Cn1c2cc(O)c(O)cc2c2cc(O)c(O)cc21 |
| 112 to 113 | Fc1cccc(CSc2nnc(-c3ccc4occc4c3)o2)c1 |
| 110 to 111 | O=C(NCc1ccc(Cl)cc1)c1ccc2cnccc2n1 |
| 205 to 207 | CON=C1CN(c2c(F)cc3c(=O)c(C(=O)O)cn(C4CC4)c3c2F)CC12CNC2 |
| 94 to 95 | Cc1cc(-c2ccnc(C#N)c2)n(-c2ccc(F)cc2)n1 |
| > 260 | CC(C)n1cnc2c(Nc3ccc([N+](=O)[O-])cc3)nc(Cl)nc21 |
| 133 | CC(C#N)(c1ccc(F)cc1)c1ccc([N+](=O)[O-])cc1Cl (centres undefined) |
| 73 to 80 | CCCNc1nc(N)c2ncn(C3C=CCCC3)c2n1 (centres undefined) |
| 147 | CS(=O)c1cc(OCC(O)CNC2CCN(c3ccc(NS(=O)(=O)c4ccc(Br)cc4)cn3)CC2)ccc1O (centres undefined) |
| 186 to 187 | COc1cc2oc(-c3ccc(F)cc3)c(Br)c2c(OC)c1Br |
| 130 to 131 | CCCc1ccc(S(=O)(=O)Nc2ccc3oncc3c2)cc1 |
| 237 to 242 | Nc1c2c(nc3cnccc13)CCCC2=O |
| 201 to 202 | Cc1cccc(C)c1CNc1cc(C(=O)N2CC2)cc2c1nc(C)n2C |
| 243 | COC(=O)[C@@H]1C[C@H](C(=O)OC(C)(C)C)N(C(=O)CNC(=O)Nc2cccc(C(=O)O)c2)[C@@H]1c1ccccc1 (racemic) |
| 72 to 73 | Cc1onc(-c2ccc(C(F)(F)F)cc2)c1CO |
| 252 | C#CCOc1ccc2cc(C(=O)OCC)c(=O)oc2c1 |
| 251 | Oc1nc(S)nc2c(-c3ccccc3)cnn12 |
| 223 to 224 | O=S(=O)(NCC(F)(F)F)c1ccc(Nc2nc(OCC3CCCCC3)c3nc[nH]c3n2)cc1 |
| > 250 | NCC1Cc2cc(C(F)(F)F)cc(-c3ccoc3)c2O1 (centres undefined) |

| melting point [°C] | Structure (SMILES) |
| --- | --- |
| 93 to 99 | COc1ccc(C2CCN(C)CC2)cc1Nc1ncc2ccc(-c3ccccc3N(C)S(C)(=O)=O)n2n1 |
| 75.5 to 76.5 | CC(C)CS(=O)(=O)c1ccnc(OS(C)(=O)=O)c1 |
| 189 to 192 | Cc1cccc2c1N(C(=O)OC(C)(C)C)Cc1c(-c3noc(C4CC4)n3)ncn1-2 |
| 110 | C=C(Cn1cc[nH]c1=O)c1ccc(OC)c(OC2CCCC2)c1 |
| 99 | CCCCCCCNC(=O)N(C)c1cccc(-c2ccc(C=C(OC)C(=O)O)cc2OCCCC)c1 |
| 140 to 143 | Cc1ccc(O[C@H]2CCN(C(=O)OCc3ccccc3)C[C@H]2O)cc1C (relative stereo) |
| 114 to 116 | CC(C)Cc1nc2ccc(Cl)cc2c(-c2ccccc2)c1CN |
| 205 to 207 | CNc1c(F)c(F)c(F)c2c1c(=O)c(C(=O)O)cn2C1CC1 |
| 52 to 53 | CCOC(=O)CC(=O)c1ccc(Br)c(OC)c1F |
| 112 to 113 | CCSc1ccc(C(=O)O)nc1SCC |
| 160 to 162 | CC(=O)O[C@@H]1[C@H](OC(C)=O)[C@@H](C)O[C@H]1n1c(Br)nc2c(Cl)c(Cl)c(Cl)cc21 |
| 220 to 223 | Cc1[nH]nc(Oc2c(Cl)cc(C(F)(F)F)cc2Cl)c1C |
| 167 to 170 | COC(=O)CCc1cc(O)cc2cc(-c3ccc(O)cc3)oc12 |
| 175 to 177 | CN1C(C)(C)CC2(CC1(C)C)NC(=O)N(CC(O)COCC(O)COCC(O)CN1C(=O)NC3(CC(C)(C)N(C)C(C)(C)C3)C1=O)C2=O (centres undefined) |
| 93 to 95 | COC(=O)C(=Cc1ccc(OC)c(OC)c1)C(C)=O |
| 142 to 145 | COC(=O)c1ccc2cc(OC)c(OC)cc2c1-c1ccnc(Cl)c1 |
| 196 to 198 | CN(C)CCN(C)c1ccc2nnc(-c3cnc([N+](=O)[O-])n3C)n2n1 |
| 205 to 209 | Cc1ccc(Sc2c(Cl)c(Cl)c(C(O)=NCCO)c(C(=O)O)c2Cl)cc1 |
| 129 | CC1CCN(c2cc(-c3ncccn3)nc(Cl)c2-c2c(F)cccc2Cl)CC1 |
| 15 | C=CCOc1ccccc1S(=O)(=O)NC(=O)n1nc(SCCF)n(C2CC2)c1=O |
| 65 | CCOP(=O)(Cc1cc(C)c(O)c(C)c1)OCC |
| 137 to 138 | COc1cccc2c1CC(C(=O)O)N2S(=O)(=O)c1ccc(-c2ccc(F)cc2Cl)cc1 (centres undefined) |
| 154 to 156 | CC(C)CC(=O)Nc1cccc(-c2ccnc3c(-c4cccc(Cl)c4Cl)cnn23)c1 |
| 107 to 110 | O=c1[nH]c2ccc(C3CCC(NCCS(=O)c4ccccc4)CC3)cc2o1 (centres undefined) |
| 192 to 194 | CSC(=NCCSCc1ncccc1O)NC#N |

| melting point [°C] | Structure (SMILES) |
| --- | --- |
| 231 to 234 | Cn1c(COc2ccc(C#N)cc2)nc2nc(C=O)ccc21 |
| 131 to 134 | CC(C)(C=C(Cl)Cl)C(=O)Nc1ccc(Cl)cc1 |
| 81.7 to 84.7 | O=C(OCc1ccccc1)c1cccc(OCc2ccccc2)c1[N+](=O)[O-] |
| 205 | COc1ccc(Cl)c(Oc2c(CCl)nc(N3CCOCC3)nc2NS(=O)(=O)c2ccc(C(C)C)cn2)c1 |
| 165 to 166 | O=C1C(=O)c2ccccc2C2=C1SCC1(CCN(C(=O)c3ccccc3I)CC1)O2 |
| 266 | Cn1c(=O)c2c(ncn2C(=O)CCC(=O)n2cnc3c2c(=O)n(C)c(=O)n3C)n(C)c1=O |
| > 300 | O=C(O)C=Cc1ccc(CCc2ccncc2)cc1 |
| > 300 | NS(=O)(=O)c1cc2[nH]c(=O)ccc2s1 |
| 265 to 266 | COc1cc(C=C(C#N)C(N)=O)c([N+](=O)[O-])cc1OC |
| 119 | NNC(=O)C(O)c1cc(F)cc(F)c1 (centres undefined) |
| 123 to 126 | Oc1ccc(NCCCCCCBr)cc1 |
| 163 to 164 | O=C1Nc2ccc(S(=O)(=O)N3CCC[C@H]3CN3CCOCC3)cc2C1=O |
| 157 to 158 | CCOc1ccc2ccccc2c1C(=O)N[C@H](Cc1ccc(C(F)(F)F)cc1)[C@H](O)c1ccc(F)cc1 (racemic) |
| 122 to 124 | CNS(=O)(=O)CCc1ccc2[nH]ccc2c1 |
| 181 to 182 | CC1(C)OC(=O)Nc2ccc(-c3ccccc3Cl)cc21 |
| 91 to 93 | CCN(CC)CCN1c2ccccc2N(C)C(=O)c2ccc(C)nc21 |
| 149 to 153 | COc1cccc2c1C1(COc3cc4c(cc31)OCO4)C(=O)N2Cc1ccc(C(F)(F)F)o1 (centres undefined) |
| 249 to 250 | COc1cc(Cc2cnc(N)nc2N)cc(OC)c1N(C)N=O |
| 74.5 to 74.8 | CC(C)(O)C#Cc1cc(C(F)(F)F)cc(C(F)(F)F)c1 |
| 254 to 255 | COc1cccn2nc(S(=O)(=O)Nc3c(F)cccc3F)nc12 |
| 127 to 128 | COc1ccc(CCc2cc3cc(C#N)ccc3o2)c(CC(=O)OCc2ccccc2)c1 |
| 147 | CNc1cc(OC)c(OC)cc1[N+](=O)[O-] |

| Structure (SMILES) | melting point [°C] |
| --- | --- |
| CN1CC(=Cc2c(F)c(F)c(N=[N+]=[N-])c(F)c2F)C(=O)C(=Cc2c(F)c(F)c(N=[N+]=[N-])c(F)c2F)C1 | 153 |
| Fc1ccc(C2=NOC(c3cc(Cl)cc(Cl)c3)(C(F)(F)F)C2)cc1Br (centres undefined) | 132 |

Reference: a melting point compilation (Tetko et al.; mined from patent text by program, amines drawn as free bases though some values may be those of a salt)
